{
  "source": "patent US9044016B2",
  "about": "“N-thio-anthranilamide compounds and their use as pesticides” (BASF SE, priority 2011, dated 2015)",
  "assay_type_in_all_cases": "in vivo",
  "key": {"[1]": {"test_system": "Western Corn Rootworm (Diabrotica virgifera virgifera)", "test": "CE.2 Western corn rootworm assay, treated soil", "conditions": "second-instar larvae, 3 days after infestation", "experimental": "(§1) The activity summarized in the tables hereinbelow are given as percentage of mortality in comparison with untreated control\nThe active compound was applied in acetone at rates of 5 and 50 ppm a.i./soil (w/w). Treatments were applied in solution to sifted, North Carolina loamy sand (Sandhill soil) in a plastic bag. Treatments were thoroughly incorporated by sealing and shaking each bag by hand and allowing the solution to soak through the soil mass for at least 10 minutes before unsealing. The bags were then kept open in a fume hood overnight to evaporate the solvent from the soil.\nOne day after treatment (DAT) distilled water for moisture and water-soaked millet seed (Panicum miliaceum ‘white millet’) as a food source were added to each bag and mixed in thoroughly. 11 cm^3 of millet and soil mixture were dispensed into a 1 oz. plastic cup. Each cup was infested with 10 western corn rootworm second-instar larvae. Each cup or group of four cells was a replicate, and replication was 3×. The test was maintained in incubators at 26° C. in the dark. Mortality was evaluated 3 days after infestation (DAI) and mean percent mortality was calculated."}, "[2]": {"test_system": "Cowpea Aphid (Aphis craccivora)", "test": "B.1 Cowpea aphid, sprayed potted cowpea plants", "conditions": "assessed after 72 hours, read-out: mortality in comparison with untreated controls", "experimental": "The active compound is dissolved at the desired concentration in a mixture of 1:1 (vol:vol) distilled water:acetone. Surfactant (Alkamuls® EL 620) is added at a rate of 0.1% (vol/vol). The test solution is prepared at the day of use.\n(§2) Potted cowpea plants were colonized with approximately 50 to 100 aphids of various stages by manually transferring a leaf tissue cut from infested plant 24 hours before application. Plants were sprayed after the pest population has been recorded. Treated plants are maintained on light carts at about 28° C. Percent mortality was assessed after 72 hours."}, "[3]": {"test_system": "Mediterranean Fruitfly (Ceratitis capitata)", "test": "CE.3 Mediterranean fruitfly, comparison with prior art compounds", "conditions": "5 days; for Mediterranean fruitfly egg and larval mortality vs. untreated control (%): sprayed onto insect diet with eggs", "experimental": "as §1\n(§3) For evaluating control of Mediterranean fruitfly (Ceratitis capitata) the test unit consisted of microtiter plates containing an insect diet and 50-80 C. capitata eggs.\n(§4) The compounds were formulated using a solution containing 75% v/v water and 25% v/v DMSO. Different concentrations of formulated compounds were sprayed onto the insect diet at 5 μl, using a custom built micro atomizer, at two replications.\nAfter application, microtiter plates were incubated at about 28±1° C. and about 80±5% relative humidity for 5 days. Egg and larval mortality was then visually assessed."}, "[4]": {"test_system": "Mediterranean Fruitfly (Ceratitis capitata)", "test": "B.4 Mediterranean fruitfly, insect diet with eggs in microtiter plates", "conditions": "120 h, egg and larval mortality, 5 days, read-out: mortality in comparison with untreated controls", "experimental": "as §3, §4\n(§5) After application, microtiter plates were incubated at about 28+1° C. and about 80+5% relative humidity for 5 days. Egg and larval mortality was then visually assessed."}, "[5]": {"test_system": "Vetch Aphid (Megoura Viciae)", "test": "B.7 Vetch aphid, broad bean leaf disks in 24-well plates", "conditions": "foliar, 120 h, sprayed leaf disks, adult aphids, 5 days, read-out: mortality in comparison with untreated controls", "experimental": "For evaluating control of vetch aphid (Megoura viciae) through contact or systemic means the test unit consisted of 24-well-microtiter plates containing broad bean leaf disks.\nThe compounds were formulated using a solution containing 75% v/v water and 25% v/v DMSO. Different concentrations of formulated compounds were sprayed onto the leaf disks at 2.5 μl, using a custom built micro atomizer, at two replications.\nAfter application, the leaf disks were air-dried and 5 to 8 adult aphids placed on the leaf disks inside the microtiter plate wells. The aphids were then allowed to suck on the treated leaf disks and incubated at about 23+1° C. and about 50+5% relative humidity for 5 days. Aphid mortality and fecundity was then visually assessed."}, "[6]": {"test_system": "Boll Weevil (Anthonomus grandis)", "test": "B.9 Boll weevil, insect diet with eggs in 96-well plates", "conditions": "120 h, egg and larval mortality, 5 days, read-out: mortality in comparison with untreated controls", "experimental": "For evaluating control of boll weevil (Anthonomus grandis) the test unit consisted of 96-well-microtiter plates containing an insect diet and 5-10 A. grandis eggs.\nas §4\nAfter application, microtiter plates were incubated at about 25+1° C. and about 75+5% relative humidity for 5 days. Egg and larval mortality was then visually assessed."}, "[7]": {"test_system": "Diamond Back Moth (Plutella xylostella)", "test": "B.2 Diamond back moth, cabbage leaf dip", "conditions": "foliar, dipped cabbage leaves, 3rd instar larvae, 72 hours after treatment, read-out: mortality in comparison with untreated controls", "experimental": "The active compound is dissolved at the desired concentration in a mixture of 1:1 (vol:vol) distilled water:aceteone. Surfactant (Alkamuls® EL 620) is added at a rate of 0.1% (vol/vol).The test solution is prepared at the day of use.\nLeaves of cabbage were dipped in test solution and air-dried. Treated leaves were placed in petri dish eslined with moist filter paper and inoculated with ten 3rd instar larvae. Mortality was recorded 72 hours after treatment. Feeding damages were also recorded using a scale of 0-100%."}, "[8]": {"test_system": "Cowpea Aphid (Aphis craccivora)", "test": "CE.1 Cowpea aphid, comparison with prior art compounds", "conditions": "for % activity (mortality of Cowpea aphid in %, vs. untreated control): sprayed cowpea plants, assessed after 72 hours", "experimental": "as §1\nThe active compound was dissolved at the desired concentration in a mixture of 1:1 (vol:vol) distilled water:acetone. Surfactant (Alkamuls® EL 620) is added at a rate of 0.1% (vol/vol). The test solution was prepared at the day of use.\nas §2"}, "[9]": {"test_system": "Green Peach Aphid (Myzus persicae)", "test": "B.3 Green peach aphid, systemic, artificial diet in 96-well plates", "conditions": "72 h, adult aphids, 3 days, read-out: mortality in comparison with untreated controls", "from_the_text": "For evaluating control of green peach aphid (Myzus persicae) through systemic means the test unit consisted of 96-well-microtiter plates containing liquid artificial diet under an artificial membrane.\nThe compounds were formulated using a solution containing 75% v/v water and 25% v/v DMSO. Different concentrations of formulated compounds were pipetted into the aphid diet, using a custom built pipetter, at two replications.\nAfter application, 5 to 8 adult aphids were placed on the artificial membrane inside the microtiter plate wells. The aphids were then allowed to suck on the treated aphid diet and incubated at about 23+1° C. and about 50+5% relative humidity for 3 days. Aphid mortality and fecundity was then visually assessed."}, "[10]": {"test_system": "Tobacco Budworm (Heliothis virescens)", "test": "B.8 Tobacco budworm I, insect diet with eggs in 96-well plates", "conditions": "120 h, egg and larval mortality, 5 days, read-out: mortality in comparison with untreated controls", "experimental": "For evaluating control of tobacco budworm (Heliothis virescens) the test unit consisted of 96-well-microtiter plates containing an insect diet and 15-25 H. virescens eggs.\nThe compounds were formulated using a solution containing 75% v/v water and 25% v/v DMSO. Different concentrations of formulated compounds were sprayed onto the insect diet at 10 μl, using a custom built micro atomizer, at two replications.\nas §5"}, "[11]": {"test_system": "Orchid Thrips (Dichromothrips Corbetti)", "test": "B.5 Orchid thrips, floral-immersion technique", "conditions": "dipped orchid flowers, adult thrips, 72 hours after treatment, read-out: mortality in comparison with untreated controls", "experimental": "Dichromothrips corbetti adults used for bioassay were obtained from a colony maintained continuously under laboratory conditions. For testing purposes, the test compound is diluted in a 1:1 mixture of acetone:water (vol:vol), plus 0.01% vol/vol Alkamuls® EL 620 surfactant.\nThrips potency of each compound was evaluated by using a floral-immersion technique. Plastic petri dishes were used as test arenas. All petals of individual, intact orchid flowers were dipped into treatment solution and allowed to dry. Treated flowers were placed into individual petri dishes along with about 20 adult thrips. The petri dishes were then covered with lids. All test arenas were held under continuous light and a temperature of about 28° C. for duration of the assay. After 3 days, the numbers of live thrips were counted on each flower, and along inner walls of each petri dish. The percentmortality was recorded 72 hours after treatment."}},
  "data": [
    {"smiles": "CCS(CC)=NC(=O)c1cc(Cl)cc(C)c1NC(=O)c1cc(C(F)(F)F)nn1-c1ncccc1Cl", "note": "[CC-2, reference compound]", "values": [
      {"measurement": "% activity (mortality of Western corn rootworm in %, vs. untreated control)", "setting": "[1]; 5 ppm a.i./soil (w/w)", "value": 21, "unit": "%"},
      {"measurement": "% activity (mortality of Western corn rootworm in %, vs. untreated control)", "setting": "[1]; 50 ppm a.i./soil (w/w)", "value": 93, "unit": "%"}
    ]},
    {"smiles": "CC(C)S(=NC(=O)c1cc(Cl)cc(Cl)c1NC(=O)c1cc(C(F)(F)F)nn1-c1ncccc1Cl)C(C)C", "note": "[S.1, 2-(3-chloro-2-pyridyl)-N-[2,4-dichloro-6-[(bis-2-propyl-λ^4-sulfanylidene)carbamoyl]phenyl]-5-(trifluoromethyl)pyrazole-3-carboxamide]", "values": [
      {"measurement": "mortality at 300 ppm", "setting": "[2]", "value": "> 75", "unit": "%"},
      {"measurement": "% activity (mortality of Western corn rootworm in %, vs. untreated control)", "setting": "[1]; 5 ppm a.i./soil (w/w)", "value": 100, "unit": "%"},
      {"measurement": "% activity (mortality of Western corn rootworm in %, vs. untreated control)", "setting": "[1]; 50 ppm a.i./soil (w/w)", "value": 100, "unit": "%"},
      {"measurement": "Mediterranean fruitfly egg and larval mortality vs. untreated control (%)", "setting": "[3]; 1415 ppm active ingredient", "value": 100, "unit": "%"},
      {"measurement": "Mediterranean fruitfly egg and larval mortality vs. untreated control (%)", "setting": "[3]; 2500 ppm active ingredient", "value": 100, "unit": "%"},
      {"measurement": "mortality at 2500 ppm", "setting": "[4]", "value": "> 75", "unit": "%"},
      {"measurement": "mortality at 2500 ppm", "setting": "[5]", "value": "> 75", "unit": "%"},
      {"measurement": "mortality at 2500 ppm", "setting": "[6]", "value": "> 95", "unit": "%"},
      {"measurement": "mortality at 300 ppm", "setting": "[7]", "value": "> 75", "unit": "%"},
      {"measurement": "% activity (mortality of Cowpea aphid in %, vs. untreated control)", "setting": "[8]; 100 ppm active ingredient", "value": 100, "unit": "%"},
      {"measurement": "% activity (mortality of Cowpea aphid in %, vs. untreated control)", "setting": "[8]; 300 ppm active ingredient", "value": 100, "unit": "%"},
      {"measurement": "% activity (mortality of Cowpea aphid in %, vs. untreated control)", "setting": "[8]; 500 ppm active ingredient", "value": 100, "unit": "%"},
      {"measurement": "activity against Cowpea aphid in comparison with comparative compound CC-3", "setting": "[8]; percent mortality after 72 hours", "value": "superior activity"},
      {"measurement": "mortality at 2500 ppm", "setting": "[9]", "value": "> 75", "unit": "%"},
      {"measurement": "mortality at 2500 ppm", "setting": "[10]", "value": "> 75", "unit": "%"},
      {"measurement": "mortality at 300 ppm", "setting": "[11]", "value": "> 75", "unit": "%"}
    ]},
    {"smiles": "O=C(N=S1CCCC1)c1cc(Cl)cc(Cl)c1NC(=O)c1cc(C(F)(F)F)nn1-c1ncccc1Cl", "note": "[S.3, 2-(3-chloro-2-pyridyl)-N-[2,4-dichloro-6-[(tetrahydro-λ^4-thiophenidene)carbamoyl]phenyl]-5-(trifluoromethyl)pyrazole-3-carboxamide]", "values": [
      {"measurement": "activity against Mediterranean fruitfly in comparison with comparative compound CC-1", "setting": "[3]; egg and larval mortality", "value": "superior activity"}
    ]},
    {"smiles": "CCS(CC)=NC(=O)c1cc(Cl)cc(Cl)c1NC(=O)c1cc(C(F)(F)F)nn1-c1ncccc1Cl", "note": "[S.6, N-[4,6-dichloro-2-[(diethyl-λ^4-sulfanylidene)carbamoyl]-phenyl]-2-(3-chloro-2-pyridyl)-5-(trifluoromethyl)pyrazole-3-carboxamide]", "values": [
      {"measurement": "mortality at 300 ppm", "setting": "[2]", "value": "> 75", "unit": "%"},
      {"measurement": "% activity (mortality of Western corn rootworm in %, vs. untreated control)", "setting": "[1]; 5 ppm a.i./soil (w/w)", "value": 100, "unit": "%"},
      {"measurement": "% activity (mortality of Western corn rootworm in %, vs. untreated control)", "setting": "[1]; 50 ppm a.i./soil (w/w)", "value": 100, "unit": "%"},
      {"measurement": "mortality at 2500 ppm", "setting": "[5]", "value": "> 75", "unit": "%"},
      {"measurement": "mortality at 2500 ppm", "setting": "[6]", "value": "> 95", "unit": "%"},
      {"measurement": "mortality at 300 ppm", "setting": "[7]", "value": "> 75", "unit": "%"},
      {"measurement": "mortality at 2500 ppm", "setting": "[9]", "value": "> 75", "unit": "%"},
      {"measurement": "mortality at 2500 ppm", "setting": "[10]", "value": "> 75", "unit": "%"},
      {"measurement": "mortality at 300 ppm", "setting": "[11]", "value": "> 75", "unit": "%"}
    ]}
  ]
}
